Patent US20120178915A1, “PYRIMIDINE DERIVATIVES AND ANALOGS, PREPARATION METHOD AND USE THEREOF” (priority 2009, published 2012)
Converted amounts (≈) assume the structure as drawn. Read-outs that look alike come from different tables or passages of the source.

Assays:
Gram-positive Bacteria = assay type: cell-based
Bacillus cereus 2 = assay: microbe, parasite or virus in culture; assay type: cell-based; settings: 37° C., 24 h, read-out: Minimum Inhibitory Concentration, MIC
Bacillus cereus 246 = assay: microbe, parasite or virus in culture; assay type: cell-based; settings: 37° C., 24 h, read-out: Minimum Inhibitory Concentration, MIC
Bacillus subtilis 82 = assay: microbe, parasite or virus in culture; assay type: cell-based; settings: 37° C., 24 h, read-out: Minimum Inhibitory Concentration, MIC
Bacillus subtilis 168 = assay: microbe, parasite or virus in culture; assay type: cell-based; settings: 37° C., 24 h, read-out: Minimum Inhibitory Concentration, MIC
[1] = test system: Enterococcus faecalis 29212; assay: microbe, parasite or virus in culture; assay type: cell-based; settings: 37° C., 24 h, read-out: Minimum Inhibitory Concentration, MIC
[2] = test system: Enterococcus faecalis 51299; assay: microbe, parasite or virus in culture; assay type: cell-based; settings: Enterococcus faecalis, 51299, 24 h, read-out: Minimum Inhibitory Concentration, MIC
[3] = test system: Enterococcus faecalis 19433; assay: microbe, parasite or virus in culture; assay type: cell-based; settings: 37° C., 24 h, read-out: Minimum Inhibitory Concentration, MIC
[4] = test system: Enterococcus faecalis F2518 (VRE); assay: microbe, parasite or virus in culture; assay type: cell-based; settings: 24 h, read-out: Minimum Inhibitory Concentration, MIC
[5] = test system: Enterococcus fecal F631 (VRE); assay: organism not typed; assay type: cell-based; settings: 24 h, read-out: Minimum Inhibitory Concentration, MIC
[6] = test system: Enterococcus faecalis 1513 (VRE); assay: microbe, parasite or virus in culture; assay type: cell-based; settings: 24 h, read-out: Minimum Inhibitory Concentration, MIC
[7] = test system: Enterococcus faecalis 583 (VRE); assay: microbe, parasite or virus in culture; assay type: cell-based; settings: 24 h, read-out: Minimum Inhibitory Concentration, MIC
[8] = test system: Staphylococcus aureus 29231; assay: microbe, parasite or virus in culture; assay type: cell-based; settings: 37° C., 24 h, read-out: Minimum Inhibitory Concentration, MIC
[9] = test system: Staphylococcus aureus 43300 (MRSA); assay: microbe, parasite or virus in culture; assay type: cell-based; settings: 24 h, read-out: Minimum Inhibitory Concentration, MIC
[10] = test system: Staphylococcus aureus 703 (MRSA); assay: microbe, parasite or virus in culture; assay type: cell-based; settings: 24 h, read-out: Minimum Inhibitory Concentration, MIC
[11] = test system: Staphylococcus aureus 704 (MRSA); assay: microbe, parasite or virus in culture; assay type: cell-based; settings: 24 h, read-out: Minimum Inhibitory Concentration, MIC
[12] = test system: Staphylococcus aureus 705 (MRSA); assay: microbe, parasite or virus in culture; assay type: cell-based; settings: 24 h, read-out: Minimum Inhibitory Concentration, MIC
[13] = test system: Streptococcus pneumoniae 6303 (PRSP); assay: microbe, parasite or virus in culture; assay type: cell-based; settings: 24 h, read-out: Minimum Inhibitory Concentration, MIC
[14] = test system: Streptococcus pneumoniae 62; assay: microbe, parasite or virus in culture; assay type: cell-based; settings: 37° C., 24 h, read-out: Minimum Inhibitory Concentration, MIC
[15] = test system: Streptococcus pneumoniae 6301; assay: microbe, parasite or virus in culture; assay type: cell-based; settings: 37° C., 24 h, read-out: Minimum Inhibitory Concentration, MIC
[16] = test system: Streptococcus pneumoniae M2; assay: microbe, parasite or virus in culture; assay type: cell-based; settings: 37° C., 24 h, read-out: Minimum Inhibitory Concentration, MIC
Pyogenic Streptococcus = assay: microbe, parasite or virus in culture; assay type: cell-based; settings: 37° C., 24 h, read-out: Minimum Inhibitory Concentration, MIC
[17] = test system: Streptococcus agalactiae B; assay: microbe, parasite or virus in culture; assay type: cell-based; settings: 37° C., 24 h, read-out: Minimum Inhibitory Concentration, MIC
green Streptococcus 1009 = assay: microbe, parasite or virus in culture; assay type: cell-based; settings: 37° C., 24 h, read-out: Minimum Inhibitory Concentration, MIC
[18] = test system: Streptococcus bovis 10035; assay: microbe, parasite or virus in culture; assay type: cell-based; settings: Streptococcus equinus, 37° C., 24 h, read-out: Minimum Inhibitory Concentration, MIC
Streptococcus 10342 = assay: MIC broth microdilution; assay type: cell-based; settings: 37° C., 24 h, read-out: Minimum Inhibitory Concentration, MIC
[19] = test system: Streptococcus pneumoniae 10351; assay: microbe, parasite or virus in culture; assay type: cell-based; settings: 37° C., 24 h, read-out: Minimum Inhibitory Concentration, MIC
Bacillus anthracis 1 = assay: microbe, parasite or virus in culture; assay type: cell-based; settings: Bacillus anthracis, 1, 24 h, read-out: Minimum Inhibitory Concentration, MIC
[20] = test system: Corynebacterium diphtheriae; assay: microbe, parasite or virus in culture; assay type: cell-based; settings: 37° C., 24 h, read-out: Minimum Inhibitory Concentration, MIC
Clostridium tetani = assay: microbe, parasite or virus in culture; assay type: cell-based; settings: 24 h
Clostridium perfringens = assay: microbe, parasite or virus in culture; assay type: cell-based; settings: 24 h, read-out: Minimum Inhibitory Concentration, MIC
Oral candidiasis = assay: MIC broth microdilution; assay type: cell-based; settings: Microorganism 32, Oral candidiasis; 37° C., 24 h; read-out: Minimum Inhibitory Concentration, MIC
MIC broth microdilution = assay type: cell-based; settings: Microorganism 33, Dermatophytosis; 37° C., 24 h; read-out: Minimum Inhibitory Concentration, MIC
MRSA 2152 = assay: Antibacterial studies in vivo, survival of mice infected with MRSA 2152; settings: dose mg/kg: ciprofloxacin 20, 3: 30, 7: 40, 21: 50, 33: 25, 70: 70; for Survival rate (%) (life prolongation rate): (survival days of test group − blank group)/blank group ×100%, MRSA 2152 mice, tail vein; for Survival: mice inoculated intraperitoneally with MRSA 2152, test compound by tail vein, repeated after six hours, saline 1.3 days
[21] = Enterococcus faecalis (VRE), Staphylococcus aureus (MRSA), Streptococcus pneumoniae 6303 (PRSP), Bacillus cereus, Bacillus subtilis, Enterococcus faecalis, Staphylococcus aureus, Streptococcus pneumoniae, Streptococcus agalactiae B and streptococci 4
[22] = read-out: Minimum Inhibitory Concentration, MIC, Microorganism 29, Clostridium tetani, 37° C.
[23] = read-out: Minimum Inhibitory Concentration, MIC, Microorganism 30, Clostridium tetani (second line of that name), 37° C.

Row | SMILES | MIC (Bacillus cereus 2) [µM] | MIC (Bacillus cereus 246) [µM] | MIC (Bacillus subtilis 82) [µM] | MIC (Bacillus subtilis 168) [µM] | MIC [1] [µM] | MIC [2] [µM] | MIC [3] [µM] | MIC [4] [µM] | MIC [5] [µM] | MIC [6] [µM] | MIC [7] [µM] | MIC [8] [µM] | MIC [9] [µM] | MIC [10] [µM] | MIC [11] [µM] | MIC [12] [µM] | MIC [13] [µM] | MIC [14] [µM] | MIC [15] [µM] | MIC [16] [µM] | further results
1 | Cc1nn2c(=O)cc(-c3ccc(C#N)cc3)[nH]c2c1-c1ccc(C(F)(F)F)cc1 [Compound 3] | 2.5 (≈ 0.986 µg/mL) | 0.53 (≈ 0.209 µg/mL) | 5 (≈ 1.97 µg/mL) | 2.5 (≈ 0.986 µg/mL) | 0.23 (≈ 0.0907 µg/mL) | 0.55 (≈ 0.217 µg/mL) | 0.42 (≈ 0.166 µg/mL) | 0.48 (≈ 0.189 µg/mL) | 0.33 (≈ 0.13 µg/mL) | 1.3 (≈ 0.513 µg/mL) | 0.63 (≈ 0.248 µg/mL) | 0.22 (≈ 0.0868 µg/mL) | 0.36 (≈ 0.142 µg/mL) | 1.25 (≈ 0.493 µg/mL) | 0.63 (≈ 0.248 µg/mL) | 0.46 (≈ 0.181 µg/mL) | 0.32 (≈ 0.126 µg/mL) | 10.5 (≈ 4.14 µg/mL) | 0.3 (≈ 0.118 µg/mL) | 0.04 (≈ 0.0158 µg/mL) | inhibition of growth (conclusion from MICs) (Gram-positive Bacteria; [21]): significantly inhibited the growth; MIC (Pyogenic Streptococcus): 0.12 µM (≈ 0.0473 µg/mL); MIC [17]: 0.16 µM (≈ 0.0631 µg/mL); MIC (green Streptococcus 1009): 0.31 µM (≈ 0.122 µg/mL); MIC [18]: 2.01 µM (≈ 0.793 µg/mL); MIC (Streptococcus 10342): 1.33 µM (≈ 0.524 µg/mL); MIC [19]: 1.25 µM (≈ 0.493 µg/mL); MIC (Bacillus anthracis 1): 25.6 µM (≈ 10.1 µg/mL); MIC [20]: 62.1 µM (≈ 24.5 µg/mL); MIC (Clostridium tetani; [22]): 50.3 µM (≈ 19.8 µg/mL); MIC (Clostridium tetani; [23]): 23.2 µM (≈ 9.15 µg/mL); MIC (Clostridium perfringens): 55.3 µM (≈ 21.8 µg/mL); MIC (Oral candidiasis): 53.1 µM (≈ 20.9 µg/mL); MIC (MIC broth microdilution): 59.1 µM (≈ 23.3 µg/mL); Survival rate (%) (life prolongation rate) (MRSA 2152): 216.8%; Survival (MRSA 2152): 4.3 days
2 | Cc1nn2c(=O)cc(-c3ccc(C(F)(F)F)cc3)[nH]c2c1-c1ccc(Cl)cc1Cl [Compound 7] | 0.63 (≈ 0.276 µg/mL) | 1.25 (≈ 0.548 µg/mL) | 0.02 (≈ 0.00876 µg/mL) | 0.22 (≈ 0.0964 µg/mL) | 0.31 (≈ 0.136 µg/mL) | 2.5 (≈ 1.1 µg/mL) | 0.61 (≈ 0.267 µg/mL) | 0.23 (≈ 0.101 µg/mL) | 0.63 (≈ 0.276 µg/mL) | 0.65 (≈ 0.285 µg/mL) | 0.3 (≈ 0.131 µg/mL) | 5 (≈ 2.19 µg/mL) | 2.5 (≈ 1.1 µg/mL) | 2.5 (≈ 1.1 µg/mL) | 0.32 (≈ 0.14 µg/mL) | 0.55 (≈ 0.241 µg/mL) | 0.21 (≈ 0.092 µg/mL) | 0.19 (≈ 0.0833 µg/mL) | 5 (≈ 2.19 µg/mL) | 2.5 (≈ 1.1 µg/mL) | inhibition of growth (conclusion from MICs) (Gram-positive Bacteria; [21]): significantly inhibited the growth; MIC (Pyogenic Streptococcus): 2.5 µM (≈ 1.1 µg/mL); MIC [17]: 0.22 µM (≈ 0.0964 µg/mL); MIC (green Streptococcus 1009): 1.35 µM (≈ 0.592 µg/mL); MIC [18]: 2.25 µM (≈ 0.986 µg/mL); MIC (Streptococcus 10342): 0.25 µM (≈ 0.11 µg/mL); MIC [19]: 1.25 µM (≈ 0.548 µg/mL); MIC (Bacillus anthracis 1): 80.3 µM (≈ 35.2 µg/mL); MIC [20]: 71.2 µM (≈ 31.2 µg/mL); MIC (Clostridium tetani; [22]): 50.3 µM (≈ 22 µg/mL); MIC (Clostridium tetani; [23]): 22.1 µM (≈ 9.69 µg/mL); MIC (Clostridium perfringens): 50.2 µM (≈ 22 µg/mL); MIC (Oral candidiasis): 35.6 µM (≈ 15.6 µg/mL); MIC (MIC broth microdilution): 36.5 µM (≈ 16 µg/mL); Survival rate (%) (life prolongation rate) (MRSA 2152): 330.7%; Survival (MRSA 2152): 5.6 days
3 | O=C1C(c2ccccc2)C(O)=Nc2cc(-c3ccc(C(F)(F)F)cc3)nn21 (stereo not shown) [Compound 42] | 0.25 (≈ 0.0928 µg/mL) | 0.23 (≈ 0.0854 µg/mL) | 0.02 (≈ 0.00743 µg/mL) | 1.23 (≈ 0.457 µg/mL) | 20.5 (≈ 7.61 µg/mL) | 21.2 (≈ 7.87 µg/mL) | 18.2 (≈ 6.76 µg/mL) | 18.2 (≈ 6.76 µg/mL) | 21.2 (≈ 7.87 µg/mL) | 20.1 (≈ 7.46 µg/mL) | 30.3 (≈ 11.3 µg/mL) | 0.28 (≈ 0.104 µg/mL) | 150 (≈ 55.8 µg/mL) | 172 (≈ 63.9 µg/mL) | 230 (≈ 85.5 µg/mL) | 180 (≈ 66.9 µg/mL) | 203 (≈ 75.4 µg/mL) | 0.25 (≈ 0.0928 µg/mL) | 0.23 (≈ 0.0854 µg/mL) | 0.02 (≈ 0.00743 µg/mL) | inhibition of growth (conclusion from MICs) (Gram-positive Bacteria; the majority of Bacillus cereus, Bacillus subtilis and Enterococcus faecalis): significantly inhibited the growth; MIC (Pyogenic Streptococcus): 1.23 µM (≈ 0.457 µg/mL); MIC [17]: 0.55 µM (≈ 0.204 µg/mL); MIC (green Streptococcus 1009): 1.25 µM (≈ 0.464 µg/mL); MIC [18]: 1.28 µM (≈ 0.475 µg/mL); MIC (Streptococcus 10342): 15.5 µM (≈ 5.76 µg/mL); MIC [19]: 1.25 µM (≈ 0.464 µg/mL); MIC (Bacillus anthracis 1): 32.5 µM (≈ 12.1 µg/mL); MIC [20]: 32 µM (≈ 11.9 µg/mL); MIC (Clostridium tetani; [22]): 30.2 µM (≈ 11.2 µg/mL); MIC (Clostridium tetani; [23]): 80.3 µM (≈ 29.8 µg/mL); MIC (Clostridium perfringens): 2.01 µM (≈ 0.746 µg/mL); MIC (Oral candidiasis): 21.3 µM (≈ 7.91 µg/mL); MIC (MIC broth microdilution): 52.1 µM (≈ 19.3 µg/mL)
